Activity calls are given as the source filed them. No cut-off for these calls is given here.
Columns and labels:
[1] = system: Stenotrophomonas maltophilia; assay: Antibacterial activity against Stenotrophomonas maltophilia assessed as inhibition of visible growth incubated for 16 to 18 hrs by CLSI method; format: functional; settings: time 16-18 hrs, read-out: MIC100
Cell membrane [2] = assay: Induction of membrane disruption in methicillin-resistant Staphylococcus aureus clinical isolate 16 assessed as increase in red fluorescence at 10 ug/ml by PI staining based confocal laser scanning microscopy; settings: dose 10.0 µg/ml
Salmonella enterica = assay: Antibacterial activity against Salmonella enterica 349812 assessed as inhibition of visible growth incubated for 16 to 18 hrs by CLSI method; format: functional; settings: time 16-18 hrs, read-out: MIC100
[3] = Toxicity in BALB/c mouse assessed as abnormalities and pathological changes in liver at 25 mg/kg, sc once a day for 3 days by H and E staining based assay; format: organism-based; settings: in vivo, 72 h, time 3 day
Staphylococcus aureus [4] = assay: Antibacterial activity against methicillin-resistant Staphylococcus aureus clinical isolate M-12 assessed as inhibition of visible growth incubated for 16 to 18 hrs by CLSI method; format: functional; settings: time 16-18 hrs, read-out: MIC100
[5] = Toxicity in BALB/c mouse assessed as abnormalities and pathological changes in kidney at 25 mg/kg, sc once a day for 3 days by H and E staining based assay; format: organism-based; settings: in vivo, 72 h, time 3 day
Staphylococcus aureus [6] = assay: Bactericidal activity against methicillin-resistant Staphylococcus aureus clinical isolate 16 assessed as reduction in colony formation in early stage at 8 times of MIC measured within 30 mins by time-kill assay; format: functional, organism-based
Staphylococcus aureus [7] = assay: Antibacterial activity against methicillin-resistant Staphylococcus aureus clinical isolate M-20 assessed as inhibition of visible growth incubated for 16 to 18 hrs by CLSI method; format: functional; settings: time 16-18 hrs, read-out: MIC100
Staphylococcus aureus [8] = assay: Antibacterial activity against methicillin-resistant Staphylococcus aureus clinical isolate 16 infected in BALB/c mouse assessed as reduction in bacterial load in spleen at 25 mg/kg, sc once a day for 3 days by H and E staining based assay; format: functional, organism-based; settings: time 3.0 day
Staphylococcus aureus [9] = assay: Antibacterial activity against methicillin-resistant Staphylococcus aureus clinical isolate M-14 assessed as inhibition of visible growth incubated for 16 to 18 hrs by CLSI method; format: functional; settings: time 16-18 hrs, read-out: MIC100
Staphylococcus aureus [10] = assay: Antibacterial activity against methicillin-resistant Staphylococcus aureus clinical isolate 16 infected in BALB/c mouse assessed as reduction in bacterial load in kidney at 25 mg/kg, sc once a day for 3 days by H and E staining based assay; format: functional, organism-based; settings: time 3.0 day
Staphylococcus aureus [11] = assay: Antibacterial activity against […] at sublethal concentration treated over 20 serial passages by resistance development assay; format: functional, organism-based
Staphylococcus aureus [12] = assay: Bactericidal activity against methicillin-resistant Staphylococcus aureus clinical isolate 16 assessed as reduction in colony formation in late stage at 8 times of MIC measured within 2 hrs by time-kill assay; format: functional, organism-based
Staphylococcus aureus [13] = assay: Antibacterial activity against methicillin-resistant Staphylococcus aureus clinical isolate M-19 assessed as inhibition of visible growth incubated for 16 to 18 hrs by CLSI method; format: functional; settings: time 16-18 hrs, read-out: MIC100
Staphylococcus aureus [14] = assay: Antibacterial activity against methicillin-resistant Staphylococcus aureus clinical isolate M-16 assessed as inhibition of visible growth incubated for 16 to 18 hrs by CLSI method; format: functional; settings: time 16-18 hrs, read-out: MIC100
L02 [15] = assay: Cytotoxicity against human L02 cells assessed as cell viability at 128 ug/ml incubated for 24 hrs by CCK8 assay; format: cell-based; settings: l02, 24 h, dose 128 µg/ml
Staphylococcus aureus [16] = assay: Antibiofilm activity against methicillin-resistant Staphylococcus aureus clinical isolate 16 assessed as decrease in viable bacteria in biofilm at 2 to 64 ug/ml incubated for 16 to 18 hrs by biofilm disruption assay; format: functional, organism-based; settings: dose 2-64 µg/ml, time 16-18 hrs
Staphylococcus aureus [17] = assay: Antibiofilm activity against Staphylococcus aureus assessed as destruction of biofilm at 64 ug/ml incubated for 16 to 18 hrs by crystal violet based biofilm disruption assay relative to control; format: functional; settings: dose 64 µg/ml; time 16-18 hrs
Bacillus subtilis = assay: Antibacterial activity against Bacillus subtilis assessed as inhibition of visible growth incubated for 16 to 18 hrs by CLSI method; format: functional; settings: time 16-18 hrs, read-out: MIC100
Staphylococcus aureus [18] = assay: Antibiofilm activity against Staphylococcus aureus assessed as decrease in viable bacteria in biofilm at 2 to 64 ug/ml incubated for 16 to 18 hrs by biofilm disruption assay; format: functional, organism-based; settings: dose 2-64 µg/ml, time 16-18 hrs
L02 [19] = assay: Cytotoxicity against human LO2 cells assessed as cell morphology at 128 ug/ml incubated for 24 hrs by live/dead staining based fluorescence microscopy; settings: l02, 24 h, dose 128 µg/ml
Enterococcus faecalis = assay: Antibacterial activity against Enterococcus faecalis ATCC29212 assessed as inhibition of visible growth incubated for 16 to 18 hrs by CLSI method; format: functional; settings: time 16-18 hrs, read-out: MIC100
Staphylococcus aureus [20] = assay: Antibacterial activity against methicillin-resistant Staphylococcus aureus clinical isolate M-18 assessed as inhibition of visible growth incubated for 16 to 18 hrs by CLSI method; format: functional; settings: time 16-18 hrs, read-out: MIC100
Cell membrane [21] = assay: Induction of cell membrane permeability in methicillin-resistant Staphylococcus aureus clinical isolate 16 assessed as fluorescent intensity by SYTOX dye based fluorescence assay; format: subcellular
Staphylococcus aureus [22] = assay: Antibacterial activity against methicillin-resistant Staphylococcus aureus clinical isolate 16 infected in BALB/c mouse assessed as reduction in inflammatory cell inflammation in liver at 25 mg/kg, sc once a day for 3 days by H and E staining based assay; format: functional, organism-based; settings: time 3.0 day
Cell membrane [23] = assay: Induction of membrane disruption in methicillin-resistant Staphylococcus aureus clinical isolate 16 at 4 to 32 ug/ml measured for 16 mins by DiSC35 dye based fluorescence assay; format: subcellular; settings: dose 4-32 µg/ml
Cell membrane [24] = assay: Induction of membrane disruption in methicillin-resistant Staphylococcus aureus clinical isolate 16 assessed as increase in blue fluorescence at 10 ug/ml by DAPI staining based confocal laser scanning microscopy; settings: dose 10.0 µg/ml
Staphylococcus aureus [25] = assay: Antibiofilm activity against Staphylococcus aureus assessed as reduction in colony forming unit at 64 ug/ml incubated for 16 to 18 hrs by biofilm disruption assay; format: functional; settings: dose 64 µg/ml; time 16-18 hrs
Staphylococcus aureus [26] = assay: Antibacterial activity against methicillin-resistant Staphylococcus aureus clinical isolate M-11 assessed as inhibition of visible growth incubated for 16 to 18 hrs by CLSI method; format: functional; settings: time 16-18 hrs, read-out: MIC100
Staphylococcus aureus [27] = assay: Antibacterial activity against Staphylococcus aureus ATCC29213 assessed as inhibition of visible growth incubated for 16 to 18 hrs by CLSI method; format: functional; settings: time 16-18 hrs, read-out: MIC100
Staphylococcus aureus [28] = assay: Antibacterial activity against methicillin-resistant Staphylococcus aureus clinical isolate M-15 assessed as inhibition of visible growth incubated for 16 to 18 hrs by CLSI method; format: functional; settings: time 16-18 hrs, read-out: MIC100
Staphylococcus aureus [29] = assay: Bactericidal activity against methicillin-resistant Staphylococcus aureus clinical isolate 16 assessed as reduction in colony formation at 1 times of MIC measured upto 8 hrs by time-kill assay; format: functional, organism-based; settings: time hrs <=8
Staphylococcus aureus [30] = assay: Antibacterial activity against methicillin-resistant Staphylococcus aureus clinical isolate 16 infected in BALB/c mouse assessed as reduction in inflammatory cell inflammation in kidney at 25 mg/kg, sc once a day for 3 days by H and E staining based assay; format: functional, organism-based; settings: time 3.0 day
Staphylococcus aureus [31] = assay: Antibacterial activity against methicillin-resistant Staphylococcus aureus clinical isolate 16 infected in BALB/c mouse assessed as reduction in bacterial load in liver at 25 mg/kg, sc once a day for 3 days by H and E staining based assay; format: functional, organism-based; settings: time 3.0 day
[32] = Toxicity in BALB/c mouse assessed as abnormalities and pathological changes in spleen at 25 mg/kg, sc once a day for 3 days by H and E staining based assay; format: organism-based; settings: in vivo, 72 h, time 3 day
[33] = Selectivity index, HC50 for hemolytic activity in sheep RBC to MIC for antibacterial activity against Staphylococcus aureus ATCC29213; format: toxicity; settings: sheep red blood cells (erythrocytes), read-out: Selectivity Index

SMILES: C=CCc1ccc(OCCC[N+](C)(C)CC(=O)NCCCC)c(-c2ccc(OCCC[N+](C)(C)CC(=O)NCCCC)c(CC=C)c2)c1.[Br-].[Br-]
- MIC [1]: 8 µg/mL
- Activity (Cell membrane [2]): Active
- MIC (Salmonella enterica): 8 µg/mL
- Activity [3]: Non-Toxic
- MIC (Staphylococcus aureus [4]): 0.5 µg/mL
- Activity [5]: Non-Toxic
- Activity (Staphylococcus aureus [6]): Active
- MIC (Staphylococcus aureus [7]): 3 µg/mL
- Activity (Staphylococcus aureus [8]): Active
- MIC (Staphylococcus aureus [9]): 1 µg/mL
- Activity (Staphylococcus aureus [10]): Active
- Activity (Staphylococcus aureus [11]): Active
- Activity (Staphylococcus aureus [12]): Active
- MIC (Staphylococcus aureus [13]): 3 µg/mL
- MIC (Staphylococcus aureus [14]): 1 µg/mL
- Activity (L02 [15]): Non-Toxic
- Activity (Staphylococcus aureus [16]): Active
- Activity (Staphylococcus aureus [17]): 20%
- MIC (Bacillus subtilis): 1 µg/mL
- Activity (Staphylococcus aureus [18]): Active
- Activity (L02 [19]): Non-Toxic
- MIC (Enterococcus faecalis): 2 µg/mL
- MIC (Staphylococcus aureus [20]): 0.5 µg/mL
- Activity (Cell membrane [21]): Dose-Dependent Effect
- Activity (Staphylococcus aureus [22]): Active
- Activity (Cell membrane [23]): Active
- Activity (Cell membrane [24]): Dose-Dependent Effect
- Activity (Staphylococcus aureus [25]): 3.8 log10CFU/ml
- MIC (Staphylococcus aureus [26]): 1 µg/mL
- MIC (Staphylococcus aureus [27]): 1 µg/mL
- MIC (Staphylococcus aureus [28]): 0.5 µg/mL
- Activity (Staphylococcus aureus [29]): Active
- Activity (Staphylococcus aureus [30]): Active
- Activity (Staphylococcus aureus [31]): Active
- Activity [32]: Non-Toxic
- selectivity ratio [33]: 789
